Values of other authors in US20170119738A1, “PHARMACEUTICAL COMPOSITIONS FOR RIZATRIPTAN” (Dr. Reddy's Laboratories, Ltd., priority 2015, published 2017).

How the values were obtained:
[1] = system: migraine headache
[2] = system: human cloned 5-HT1B/1D receptors

SMILES: CN(C)CCc1c[nH]c2ccc(Cn3cncn3)cc12 [Rizatriptan, N,N-dimethyl-2-[5-(1H-1,2,4-triazol-1-ylmethyl)-1H-indol-3-yl]ethanamine]
- pain-free response at 2 hours, symptom-free response at 2 hours, 24 hour sustained pain-free response ([1]; oral 10 mg vs oral sumatriptan, naratriptan, zolmitriptan (Adelman et al. 2001)): more effective
- effectiveness for pain relief (PR) and pain freedom (PF) ([1]; oral 10 mg vs other oral triptans (Ng-Mak et al. 2007)): significantly more effective than other oral triptans
- binding affinity [2]: high affinity
